The conditions of data set [1]: high orally administered doses; cited from earlier work.
The nature of a further data set: in vivo. The conditions noted are these: rat. The procedure: Method for Rat Pharmacokinetic Studies: Rat “feed and bleed” studies were performed with LD and synthetically prepared LD:metal complexes wherein key PK parameters, such as maximum concentration (Cmax), AUC, and time of maximum concentration (tmax) were measured vis-à-vis the reference drug, LD.
In each experiment, male Sprague-Dawley rats with jugular vein catheters (250-300 g; n=5-10) are used. These rats were obtained from a commercial source (Harlan Laboratory Animals, Dublin, Va.) and housed individually. Water was available ad libitum. Rats were fed certified rodent chow ad libitum. After arrival, the health of rats was assessed and animals were placed in quarantine for a minimum of five days during which time general health was assessed. At the end of quarantine, rats were moved to permanent animal quarters for access and study.
All studies employed oral dosing using size 9 rodent gelatin capsules from Torpac (Fairfield, N.J.). After fasting overnight, the rats are dosed at time zero with periodic blood sampling from the catheter (5-8 time points between 0 and 24 hours). Blood (200-300 μL) is drawn and collected in heparinized tubes. Plasma is separated by centrifugation and stored at −20° C. until work-up. Plasma samples are then treated according to developed methodology (e.g., FEBS Lett., 2002, 524 (1-3), 199-203), and analyzed (LC/MS/MS) for drug concentrations. Average plasma values (±SEM) for each time are calculated and PK parameters, including Cmax, tmax, and total amount absorbed (AUC0-6h), are determined using standard software.
Each study employs a crossover design whereby the LD and a metal:LD complex are tested in the same rats with a 5-day wash-out period separating the two experiments.

The values that follow come from patent publication US10150792B2, “Bismuth-containing compounds, coordination polymers, methods for modulating pharmacokinetic properties of biologically active agents, and methods for treating patients” (priority 2010, dated 2018).

Consider `O=C(O)C(Cl)Cl` [DCA, dichloroacetate], for which the Fraction absorbed in data set [1] was 100%. The Cmax is the highest concentration seen after dosing. For orientation: Tmax means the time at which the peak concentration occurs. Take `N[C@@H](Cc1ccc(O)c(O)c1)C(=O)O` [LD, levodopa, reference compound]: the maximum concentration (Cmax) in the data set “in vivo” (male, Sprague-Dawley, in vivo, po) turned out to be 17 µM. Besides, the Tmax in the data set “in vivo” (male, Sprague-Dawley, in vivo, po, 20 mg/kg) was 20 min. Consider tris(LD)bismuth oxide [Bi(O)(dopa)3], for which, in the data set “in vivo” (FIG. 13, oral, equivalent to 20 mg/kg LD + carbidopa 10 mg/kg, sampling to 3 hours), the “Course of LD plasma levels” value is on record as “remained at or near their peak levels for the duration of the study”. In addition, the “LD plasma level at 3 hours” value in “in vivo” (FIGS. 13 and 14, oral, equivalent to 20 mg/kg LD + carbidopa 10 mg/kg) was 10 nmol/mL.
